This note sets out measurements from patent publication US8969383B2, “Picolinamide derivatives as TTX-S blockers” (RaQualia Pharma Inc., priority 2009, dated 2015).

The target of experiment [1] is T1, human Nav1.7 (Homo sapiens, UniProt Q15858).
T1 construct: expressed in transfected cells; host or cells: CHO
Briefly: FRET assay, human Nav1.7 channels expressed in CHO cells. It is filed as cell-based. The conditions noted are these: CHO cells expressing human NaV1.7, veratridine-opened channels. On the procedure:
(§1) The ability of the picolinamide derivatives of the formula (I) to inhibit the NaV1.3,Nav1.7 and Nav1.5 channels was measured by FRET assay and electrophysiology assay described below.
(§2) This screen is used to determine the effects of compounds on human Nav1.3, human Nav1.7, and human Nav1.5 channels, utilising the cell imaging technology by Hamamatsu Photonics's Functional Drug Screening System (FDSS). This experiment is based on FRET (Fluorescence Resonance Energy Transfer) and uses two fluorescent molecules. The first molecule, Oxonol (DiSBAC2(3)), is a highly fluorescent, negatively charged, hydrophobic ion that “senses” the trans-membrane electrical potential. In response to changes in membrane potential, it can rapidly redistribute between two binding sites on opposite sides of the plasma membrane. The voltage dependent redistribution is transduced into a ratiometric fluorescent readout via a second fluorescent molecule (Coumarin (CC2-DMPE)) that binds specifically to one face of the plasma membrane and functions as a FRET partner to the mobile voltage-sensing ion. To enable the assay to work, the channels have to be pharmacologically held in the open state. This is achieved by treating the cells with veratridine.
CHO cells expressing human NaV1.7 channels were grown in T225 flasks, in a 5% CO 2 humidified incubator to about 80% confluence. Media composition consisted of HAM/F12 with Glutamax 1.10% fetal calf serum (FCS), 100 units/ml Penicillin and 100 microgram/ml Hygromycin.
(§3) • Seed each cell lines (1.5×10^4 cells/well) into poly-D-lysine coated 384-well plates prior to experimentation. • Incubate at 37° C. in 5% CO2 for 24 hours. • Wash each well with buffer #1 (140 mM NaCl, 4.5 mM KCl, 10 mM D-Glucose, 2 mM CaCl2, 1 mM MgCl2, 10 mM HEPES, pH 7.4 adjusted with NaOH) twice using plate washer. • Add 1st loading solution containing 5 μM CC2-DMPE and 0.02% Pluronic F-127 in buffer #1. • Incubate the plate at room temperature in dark for 0.5 hours. • Wash each well with buffer #2 (160 mM Choline, 10 mM D-Glucose, 0.1 mM CaCl2, 1 mM MgCl2, 10 mM HEPES, pH 7.4 adjusted with KOH) twice using plate washer. • Add 2nd loading solution containing 15 μM DiSBAC2(3), 0.5 mM VABSC-1, 10 μM veratridine and 0.004% Pluronic F-127 in buffer #2. • Add compound solutions into the assay plate and leave the plate for 30 minutes under the dark at room temperature. • Measure by FDSS.
(§4) The data was analyzed and reported as normalized ratios of intensities measured in the 465 nm and 575 nm channels. The process of calculating these ratios was performed as follows:
(§5) “FI465B”=the mean of fluorescence intensity as baseline (before Na+ ligand addition) at 465 nm
(§6) “FI575B”=the mean of fluorescence intensity as baseline (before Na+ ligand addition) at 575 nm
(§7) “FI465Max”=maximum fluorescence intensity at 465 nm after Na+ stimulation
(§8) “FI575 Min”=minimum fluorescence intensity at 575 nm after Na+ stimulation
(§9) This analysis was performed using a computerized specific program designed for FDSS generated data. Fluorescence ratio values were plotted using XLfit to determine an IC50 value for each compound.

Experiment [2] concerns the target T2, human Nav1.3 (Homo sapiens, UniProt Q9NY46).
T2 construct: expressed in transfected cells; host or cells: HEK293
Description: FRET assay, human Nav1.3 channels expressed in HEK293 cells. Format: cell-based. The conditions noted are these: HEK293 cells expressing human NaV1.3, veratridine-opened channels. On the procedure: as §1, §2
Each HEK293 cells expressing human NaV1.3 channels and HEK293 cells expressing human NaV1.5 channels were grown in T225 flasks, in a 5% CO2 humidified incubator to about 80% confluence. Media composition consisted of Dulbecco's Modified Eagle Medium (high glucose), 10% fetal calf serum (FCS), 100 units/ml Penicillin, 100 microgram/ml Streptomycin and 500 microgram/ml Geneticine.
as §3, §4, §5, §6, §7, §8, §9

T2 sequence (Q9NY46 whole entry): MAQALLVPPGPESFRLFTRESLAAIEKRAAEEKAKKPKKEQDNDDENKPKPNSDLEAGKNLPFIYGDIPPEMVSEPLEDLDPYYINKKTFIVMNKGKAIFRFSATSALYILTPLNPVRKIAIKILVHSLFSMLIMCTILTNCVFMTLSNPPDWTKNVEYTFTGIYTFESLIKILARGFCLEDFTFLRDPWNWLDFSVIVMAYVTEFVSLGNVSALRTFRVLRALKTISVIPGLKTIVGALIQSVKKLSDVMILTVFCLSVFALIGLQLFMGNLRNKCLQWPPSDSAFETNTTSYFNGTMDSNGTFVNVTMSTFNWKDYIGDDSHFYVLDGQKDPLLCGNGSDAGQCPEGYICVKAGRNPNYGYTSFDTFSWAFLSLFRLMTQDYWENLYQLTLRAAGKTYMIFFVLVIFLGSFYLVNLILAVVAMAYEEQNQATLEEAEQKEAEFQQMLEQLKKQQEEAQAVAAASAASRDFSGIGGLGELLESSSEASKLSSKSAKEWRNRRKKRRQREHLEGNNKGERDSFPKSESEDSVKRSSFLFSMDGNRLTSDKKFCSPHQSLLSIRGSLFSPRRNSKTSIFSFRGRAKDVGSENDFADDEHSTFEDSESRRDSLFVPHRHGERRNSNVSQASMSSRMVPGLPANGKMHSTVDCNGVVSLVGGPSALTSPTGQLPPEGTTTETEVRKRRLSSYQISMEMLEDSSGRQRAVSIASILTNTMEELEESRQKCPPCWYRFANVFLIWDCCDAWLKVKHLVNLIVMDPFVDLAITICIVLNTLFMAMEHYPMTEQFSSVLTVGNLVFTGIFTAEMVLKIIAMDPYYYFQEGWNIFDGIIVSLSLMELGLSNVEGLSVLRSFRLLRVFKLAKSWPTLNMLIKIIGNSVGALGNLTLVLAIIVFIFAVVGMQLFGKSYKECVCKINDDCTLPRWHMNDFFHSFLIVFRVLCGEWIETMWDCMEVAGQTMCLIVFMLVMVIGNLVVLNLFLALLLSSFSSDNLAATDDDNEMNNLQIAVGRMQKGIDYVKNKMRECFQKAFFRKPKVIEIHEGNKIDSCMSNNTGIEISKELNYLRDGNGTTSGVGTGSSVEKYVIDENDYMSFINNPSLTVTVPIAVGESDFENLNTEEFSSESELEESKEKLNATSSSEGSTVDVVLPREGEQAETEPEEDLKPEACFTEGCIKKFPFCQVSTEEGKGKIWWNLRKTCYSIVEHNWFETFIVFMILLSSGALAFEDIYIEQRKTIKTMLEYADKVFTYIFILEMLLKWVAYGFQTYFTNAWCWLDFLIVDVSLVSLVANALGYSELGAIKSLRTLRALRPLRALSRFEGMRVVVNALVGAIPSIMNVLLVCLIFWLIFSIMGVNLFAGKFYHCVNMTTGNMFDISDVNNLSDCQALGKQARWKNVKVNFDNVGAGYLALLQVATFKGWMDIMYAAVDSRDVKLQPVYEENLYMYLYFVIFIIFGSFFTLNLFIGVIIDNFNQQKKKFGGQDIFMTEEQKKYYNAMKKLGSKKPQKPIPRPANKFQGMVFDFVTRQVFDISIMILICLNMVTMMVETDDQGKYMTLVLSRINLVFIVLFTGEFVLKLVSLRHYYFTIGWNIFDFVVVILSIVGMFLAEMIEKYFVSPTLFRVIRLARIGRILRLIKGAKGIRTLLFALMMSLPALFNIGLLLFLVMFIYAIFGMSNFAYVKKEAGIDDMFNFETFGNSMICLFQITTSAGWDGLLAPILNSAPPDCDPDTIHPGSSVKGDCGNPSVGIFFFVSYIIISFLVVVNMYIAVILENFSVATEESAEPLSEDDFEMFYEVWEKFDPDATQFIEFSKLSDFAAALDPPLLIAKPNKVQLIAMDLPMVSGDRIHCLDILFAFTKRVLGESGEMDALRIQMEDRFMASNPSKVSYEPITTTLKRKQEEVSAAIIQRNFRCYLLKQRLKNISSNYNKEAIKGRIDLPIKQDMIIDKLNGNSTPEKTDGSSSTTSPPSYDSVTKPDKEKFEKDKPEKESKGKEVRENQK
T1 sequence (Q15858 whole entry): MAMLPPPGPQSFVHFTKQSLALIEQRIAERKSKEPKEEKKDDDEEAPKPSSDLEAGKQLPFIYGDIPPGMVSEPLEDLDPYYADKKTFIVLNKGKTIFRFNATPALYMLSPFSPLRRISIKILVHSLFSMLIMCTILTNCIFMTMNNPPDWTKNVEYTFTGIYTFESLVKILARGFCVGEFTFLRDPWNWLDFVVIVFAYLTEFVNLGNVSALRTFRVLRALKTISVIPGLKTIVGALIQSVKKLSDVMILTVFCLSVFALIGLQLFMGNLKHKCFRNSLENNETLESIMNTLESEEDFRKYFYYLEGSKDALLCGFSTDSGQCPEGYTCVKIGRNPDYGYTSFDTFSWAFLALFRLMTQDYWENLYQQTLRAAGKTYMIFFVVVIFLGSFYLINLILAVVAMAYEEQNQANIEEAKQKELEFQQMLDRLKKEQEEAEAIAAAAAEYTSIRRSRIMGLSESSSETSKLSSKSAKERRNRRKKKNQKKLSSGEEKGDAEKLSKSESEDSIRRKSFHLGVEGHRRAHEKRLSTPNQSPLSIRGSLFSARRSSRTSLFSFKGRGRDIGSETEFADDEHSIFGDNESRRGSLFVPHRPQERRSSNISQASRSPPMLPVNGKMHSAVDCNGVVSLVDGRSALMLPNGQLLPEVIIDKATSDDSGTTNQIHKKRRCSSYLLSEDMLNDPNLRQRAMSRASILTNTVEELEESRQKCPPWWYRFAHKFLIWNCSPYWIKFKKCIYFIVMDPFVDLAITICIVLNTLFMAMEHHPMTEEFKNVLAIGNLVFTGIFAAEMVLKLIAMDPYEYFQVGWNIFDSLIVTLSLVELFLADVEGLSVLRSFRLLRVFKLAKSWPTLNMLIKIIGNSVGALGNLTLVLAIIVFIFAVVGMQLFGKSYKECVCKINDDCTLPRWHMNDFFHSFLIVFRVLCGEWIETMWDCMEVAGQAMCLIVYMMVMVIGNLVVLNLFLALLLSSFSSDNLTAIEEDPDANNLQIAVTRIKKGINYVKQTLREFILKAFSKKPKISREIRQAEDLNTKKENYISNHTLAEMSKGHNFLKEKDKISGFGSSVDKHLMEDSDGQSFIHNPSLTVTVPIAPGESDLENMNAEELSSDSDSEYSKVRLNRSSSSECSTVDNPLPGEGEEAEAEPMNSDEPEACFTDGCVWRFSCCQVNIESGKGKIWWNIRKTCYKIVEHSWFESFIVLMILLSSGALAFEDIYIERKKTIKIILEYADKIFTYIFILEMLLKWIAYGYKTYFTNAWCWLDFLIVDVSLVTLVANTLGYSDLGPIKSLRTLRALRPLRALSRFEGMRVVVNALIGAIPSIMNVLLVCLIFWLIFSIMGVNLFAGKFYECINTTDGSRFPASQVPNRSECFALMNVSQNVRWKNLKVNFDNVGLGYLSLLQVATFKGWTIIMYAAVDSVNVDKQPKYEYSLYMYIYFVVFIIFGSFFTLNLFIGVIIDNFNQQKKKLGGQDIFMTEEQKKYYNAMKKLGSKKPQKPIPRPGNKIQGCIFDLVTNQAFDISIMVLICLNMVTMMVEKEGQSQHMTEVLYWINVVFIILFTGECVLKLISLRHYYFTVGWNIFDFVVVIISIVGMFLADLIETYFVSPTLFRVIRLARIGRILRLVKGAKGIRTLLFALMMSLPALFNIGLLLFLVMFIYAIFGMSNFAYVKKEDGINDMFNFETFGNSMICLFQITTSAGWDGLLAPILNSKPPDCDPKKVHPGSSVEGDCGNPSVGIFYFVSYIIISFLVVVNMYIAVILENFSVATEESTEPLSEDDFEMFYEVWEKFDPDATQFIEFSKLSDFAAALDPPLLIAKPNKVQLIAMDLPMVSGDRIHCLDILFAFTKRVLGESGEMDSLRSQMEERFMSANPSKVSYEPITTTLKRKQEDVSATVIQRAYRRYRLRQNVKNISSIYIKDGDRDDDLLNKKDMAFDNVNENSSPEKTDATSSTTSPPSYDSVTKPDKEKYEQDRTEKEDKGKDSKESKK

As usually defined, the IC50 is the concentration that gives 50% inhibition. Low values mean inhibition by little substance, high ones a need for much substance. Regarding `CC(C)(C)c1cc(C(=O)N2CCC[C@@H]2COc2cccnc2C(N)=O)no1` [Example 17, (R)-3-((1-(5-tert-butylisoxazole-3-carbonyl)pyrrolidin-2-yl)methoxy)picolinamide], the IC50 in experiment [1] and in experiment [2] was no more than 500 nM in each case.
Consider `NC(=O)c1ncccc1OC[C@H]1CCCN1C(=O)c1ccc(OC(F)(F)F)cc1` [Example 25, (R)-3-((1-(4-(trifluoromethoxy)benzoyl)pyrrolidin-2-yl)methoxy) picolinamide], for which the IC50 in experiment [1] and in experiment [2] was no more than 500 nM throughout.
